# Assay results: PubChem BioAssay (NCI)
#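 Dose response: 5 concentrations. Exposure: 48 h. Format: 96-well plates. Endpoint: linear interpolation; highest concentration if not reached. GI50 is the concentration that inhibits growth by half. TGI: total growth inhibition.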
# Key:
# Assay in all cases: NCI tumour cell line growth inhibition, 48 h
# KM12 colon = tested on: KM12 colon
# HT29 colon = tested on: HT29 colon
# RXF 393 renal = tested on: RXF 393 renal
# 786-0 renal = tested on: 786-0 renal
# SW-620 colon = tested on: SW-620 colon
# UO-31 renal = tested on: UO-31 renal
# SF-268 CNS = tested on: SF-268 CNS
# MCF7 breast = tested on: MCF7 breast
# SR leukemia = tested on: SR leukemia
# BT-549 breast = tested on: BT-549 breast
# SK-MEL-5 melanoma = tested on: SK-MEL-5 melanoma
# MALME-3M melanoma = tested on: MALME-3M melanoma
# HCT-116 colon = tested on: HCT-116 colon
# HCT-15 colon = tested on: HCT-15 colon
# OVCAR-5 ovarian = tested on: OVCAR-5 ovarian
# SNB-19 CNS = tested on: SNB-19 CNS
# HL-60(TB) leukemia = tested on: HL-60(TB) leukemia
# CAKI-1 renal = tested on: CAKI-1 renal
# MOLT-4 leukemia = tested on: MOLT-4 leukemia
# OVCAR-3 ovarian = tested on: OVCAR-3 ovarian
# SNB-75 CNS = tested on: SNB-75 CNS
# HOP-92 NSCLC = tested on: HOP-92 NSCLC
# SF-539 CNS = tested on: SF-539 CNS
# OVCAR-8 ovarian = tested on: OVCAR-8 ovarian
# T-47D breast = tested on: T-47D breast
# SK-MEL-28 melanoma = tested on: SK-MEL-28 melanoma
# U251 CNS = tested on: U251 CNS
# CCRF-CEM leukemia = tested on: CCRF-CEM leukemia
# NCI-H522 lung = tested on: NCI-H522 lung
# LOX IMVI melanoma = tested on: LOX IMVI melanoma
# NCI-H226 lung = tested on: NCI-H226 lung
# M14 melanoma = tested on: M14 melanoma
# EKVX NSCLC = tested on: EKVX NSCLC
# TK-10 renal = tested on: TK-10 renal
# OVCAR-4 ovarian = tested on: OVCAR-4 ovarian
# SK-MEL-2 melanoma = tested on: SK-MEL-2 melanoma
# IGROV1 ovarian = tested on: IGROV1 ovarian
# A498 renal = tested on: A498 renal
# UACC-62 melanoma = tested on: UACC-62 melanoma
# UACC-257 melanoma = tested on: UACC-257 melanoma
# DU-145 prostate = tested on: DU-145 prostate
# SK-OV-3 ovarian = tested on: SK-OV-3 ovarian
# MDA-MB-231 breast = tested on: MDA-MB-231 breast
# K-562 leukemia = tested on: K-562 leukemia
# PC-3 prostate = tested on: PC-3 prostate
# SN12C renal = tested on: SN12C renal
# NCI-H460 lung = tested on: NCI-H460 lung
# ACHN renal = tested on: ACHN renal
# HS 578T breast = tested on: HS 578T breast
# MDA-MB-435 = tested on: MDA-MB-435
# RPMI-8226 leukemia = tested on: RPMI-8226 leukemia
# NCI/ADR-RES ovarian = tested on: NCI/ADR-RES ovarian
# HOP-62 NSCLC = tested on: HOP-62 NSCLC
# COLO 205 colon = tested on: COLO 205 colon
# HCC-2998 colon = tested on: HCC-2998 colon
# A549 NSCLC = tested on: A549 NSCLC
# SF-295 CNS = tested on: SF-295 CNS
# NCI-H23 lung = tested on: NCI-H23 lung
smiles,measurement,setting,value
COc1ccc(/C=C(\C#N)c2ccc(OC)cc2)cc1,GI50,KM12 colon,3.87 µM
same,TGI,KM12 colon,> 100 µM
same,GI50,HT29 colon,7.1 µM
same,TGI,HT29 colon,> 100 µM
same,GI50,RXF 393 renal,13.7 µM
same,TGI,RXF 393 renal,> 100 µM
same,GI50,786-0 renal,> 100 µM
same,TGI,786-0 renal,> 100 µM
same,GI50,SW-620 colon,5.81 µM
same,TGI,SW-620 colon,> 100 µM
same,GI50,UO-31 renal,> 100 µM
same,TGI,UO-31 renal,> 100 µM
same,GI50,SF-268 CNS,> 100 µM
same,TGI,SF-268 CNS,> 100 µM
same,GI50,MCF7 breast,41.5 µM
same,TGI,MCF7 breast,> 100 µM
same,GI50,SR leukemia,2.07 µM
same,TGI,SR leukemia,> 100 µM
same,GI50,BT-549 breast,22.9 µM
same,TGI,BT-549 breast,> 100 µM
same,GI50,SK-MEL-5 melanoma,4.85 µM
same,TGI,SK-MEL-5 melanoma,> 100 µM
same,GI50,MALME-3M melanoma,> 100 µM
same,TGI,MALME-3M melanoma,> 100 µM
same,GI50,HCT-116 colon,7.15 µM
same,TGI,HCT-116 colon,> 100 µM
same,GI50,HCT-15 colon,4.56 µM
same,TGI,HCT-15 colon,> 100 µM
same,GI50,OVCAR-5 ovarian,62.3 µM
same,TGI,OVCAR-5 ovarian,> 100 µM
same,GI50,SNB-19 CNS,82.8 µM
same,TGI,SNB-19 CNS,> 100 µM
same,GI50,HL-60(TB) leukemia,13.5 µM
same,TGI,HL-60(TB) leukemia,> 100 µM
same,GI50,CAKI-1 renal,13.1 µM
same,TGI,CAKI-1 renal,> 100 µM
same,GI50,MOLT-4 leukemia,5.49 µM
same,TGI,MOLT-4 leukemia,> 100 µM
same,GI50,OVCAR-3 ovarian,7.59 µM
same,TGI,OVCAR-3 ovarian,52 µM
same,GI50,SNB-75 CNS,87.6 µM
same,TGI,SNB-75 CNS,> 100 µM
same,GI50,HOP-92 NSCLC,23.5 µM
same,TGI,HOP-92 NSCLC,> 100 µM
same,GI50,SF-539 CNS,20.7 µM
same,TGI,SF-539 CNS,> 100 µM
same,GI50,OVCAR-8 ovarian,91.8 µM
same,TGI,OVCAR-8 ovarian,> 100 µM
same,GI50,T-47D breast,32.2 µM
same,TGI,T-47D breast,> 100 µM
same,GI50,SK-MEL-28 melanoma,> 100 µM
same,TGI,SK-MEL-28 melanoma,> 100 µM
same,GI50,U251 CNS,20.6 µM
same,TGI,U251 CNS,> 100 µM
same,GI50,CCRF-CEM leukemia,9.47 µM
same,TGI,CCRF-CEM leukemia,> 100 µM
same,GI50,NCI-H522 lung,42.8 µM
same,TGI,NCI-H522 lung,> 100 µM
same,GI50,LOX IMVI melanoma,13.3 µM
same,TGI,LOX IMVI melanoma,> 100 µM
same,GI50,NCI-H226 lung,> 100 µM
same,TGI,NCI-H226 lung,> 100 µM
same,GI50,M14 melanoma,8.18 µM
same,TGI,M14 melanoma,> 100 µM
same,GI50,EKVX NSCLC,14.5 µM
same,TGI,EKVX NSCLC,> 100 µM
same,GI50,TK-10 renal,> 100 µM
same,TGI,TK-10 renal,> 100 µM
same,GI50,OVCAR-4 ovarian,27.4 µM
same,TGI,OVCAR-4 ovarian,> 100 µM
same,GI50,SK-MEL-2 melanoma,> 100 µM
same,TGI,SK-MEL-2 melanoma,> 100 µM
same,GI50,IGROV1 ovarian,46.1 µM
same,TGI,IGROV1 ovarian,> 100 µM
same,GI50,A498 renal,> 100 µM
same,TGI,A498 renal,> 100 µM
same,GI50,UACC-62 melanoma,10.3 µM
same,TGI,UACC-62 melanoma,> 100 µM
same,GI50,UACC-257 melanoma,> 100 µM
same,TGI,UACC-257 melanoma,> 100 µM
same,GI50,DU-145 prostate,14.9 µM
same,TGI,DU-145 prostate,> 100 µM
same,GI50,SK-OV-3 ovarian,42 µM
same,TGI,SK-OV-3 ovarian,> 100 µM
same,GI50,MDA-MB-231 breast,33.6 µM
same,TGI,MDA-MB-231 breast,> 100 µM
same,GI50,K-562 leukemia,2.78 µM
same,TGI,K-562 leukemia,> 100 µM
same,GI50,PC-3 prostate,30 µM
same,TGI,PC-3 prostate,> 100 µM
same,GI50,SN12C renal,81.7 µM
same,TGI,SN12C renal,> 100 µM
same,GI50,NCI-H460 lung,7.31 µM
same,TGI,NCI-H460 lung,> 100 µM
same,GI50,ACHN renal,76.1 µM
same,TGI,ACHN renal,> 100 µM
same,GI50,HS 578T breast,82.2 µM
same,TGI,HS 578T breast,> 100 µM
same,GI50,MDA-MB-435,0.563 µM
same,TGI,MDA-MB-435,18.4 µM
same,GI50,RPMI-8226 leukemia,9.48 µM
same,TGI,RPMI-8226 leukemia,> 100 µM
same,GI50,NCI/ADR-RES ovarian,3.13 µM
same,TGI,NCI/ADR-RES ovarian,29.3 µM
same,GI50,HOP-62 NSCLC,69.9 µM
same,TGI,HOP-62 NSCLC,> 100 µM
same,GI50,COLO 205 colon,21.1 µM
same,TGI,COLO 205 colon,> 100 µM
same,GI50,HCC-2998 colon,7.38 µM
same,TGI,HCC-2998 colon,> 100 µM
same,GI50,A549 NSCLC,> 100 µM
same,TGI,A549 NSCLC,> 100 µM
same,GI50,SF-295 CNS,8.01 µM
same,TGI,SF-295 CNS,> 100 µM
same,GI50,NCI-H23 lung,9.77 µM
same,TGI,NCI-H23 lung,> 100 µM
